Experimental data from patent US8809358B2, “Use of IκB-kinase inhibitors in pain therapy” (Sanofi-Aventis Deutschland GmbH, priority 2002, dated 2014).

System: Zymosan-induced paw inflammation
Test: Zymosan-induced paw inflammation in the rat: paw withdrawal threshold during mechanical stimulation (von Frey test)
Assay type: in vivo
Conditions: for Change in the paw withdrawal threshold (%): 30 mg/kg i.p. 15 min before, 2.5 and 5.5 h after Zymosan
Method: • Zymosan-induced paw inflammation in the rat; • Parameter: paw withdrawal time or paw withdrawal threshold during thermal or mechanical stimulation of the hind paw. 2nd Model: • Kaolin/carrageenan-induced knee joint inflammation in the rat; • Parameter: reaction of spinal neurons during pressure stimulation of the knee. Model 1
Experimental implementation: in short-term anesthesia using isoflurane, 1 mg of Zymosan (as a suspension in 100 μl of PBS (phosphate-buffered salt solution)) was injected subcutaneously into the middle of the plantar side of one of the experimental animal's hind paws. After that, two different behavioral tests were used to quantitatively determine the development of a hyperalgesia.
b) Determining the Paw Withdrawal Threshold During Mechanical Stimulation (von Frey Test)
The experimental animal was placed in a transparent plastic chamber whose floor consisted of wire-gauze. Punctuate pressure of defined strength was produced using calibrated nylon fibers, what are termed von Frey hairs. The weakest pressure stimulation during which the animal withdrew its paw determines the mechanical pain threshold.
About half an hour before, and at various times after, the Zymosan injection, the thermal and mechanical pain thresholds were determined on the right hind paw and on the left hind paw (see Tables 1, 2). The decrease in the ipsilateral pain threshold, expressed in % of the contralateral pain threshold, was then calculated (see Tables 1, 2). The degree of hyperalgesia is directly proportional to the magnitude of this decrease.
In a control group, the Zymosan injection induced pronounced mechanical and thermal hyperalgesia (see control data in Tabs. 1 and 2).

CNc1nccc(-c2cc3cc(C(=O)N[C@@H](CN(c4ccccc4)c4ccccc4)c4n[nH]c(=O)o4)ccc3[nH]2)n1 [Compound 13, N—[(S)-2-diphenylamino-1-(5-oxo-4,5-dihydro[1,3,4]oxadiazol-2-yl)ethyl]-2-(2-methylaminopyrimidin-4-yl)-1H-indole-5-carboxamide]
onset of the effect on mechanical hyperalgesia after Zymosan injection (30 mg/kg i.p.): 1 h | Change in the paw withdrawal threshold (%) (2 h after Zymosan injection): −36.0% | Change in the paw withdrawal threshold (%) (24 h after Zymosan injection): −9.7% | Change in the paw withdrawal threshold (%) (Baseline −0.5 h): 0.0% | mechanical hyperalgesia (30 mg/kg i.p. three times): significantly reduced | persistence of the effect on mechanical hyperalgesia after the last administration (30 mg/kg i.p. three times): ≥ 18 h | activity in the test model (mechanical hyperalgesia): very strong
